Experimental data as given in patent US8906853B2, “[N-Me-4-hydroxyleucine]-9-cyclosporin analogues for treatment and prevention of hepatitis C infection” (Enanta Pharmaceuticals, Inc., priority 2012, dated 2014).

Legend:
[1] = tested on: HCV 1b genotype replicon (strain Con1, SGR 11-7 cells); assay: HCV replicon assay, qRT-PCR, genotype 1b replicon cell line (SGR 11-7); type: cell-based; settings: HCV genotype 1b replicon, HCV RNA by qRT-PCR normalized to GAPDH RNA
Excerpt: (§1) HCV replicon cell lines (kindly provided by R. Bartenschlager) isolated from colonies as described by Lohman et al. (Lohman et al. (1999) Science 285: 110-113, expressly incorporated by reference in its entirety) and used for all experiments. One of the HCV replicon cell lines (strain Con1, genotype 1b) has the nucleic acid sequence set forth in EMBL Accession No.: AJ242651, the coding sequence of which is from nucleotides 1801 to 8406. Another replicon cell line (strain H77, genotype 1a) was constructed as described by Yi et al. (Yi et al. (2004) Journal of Virology 78(15):7904-15). […]
(§2) EC50 values of single agent compounds were determined by HCV RNA detection using quantitative RT-PCR, according to the manufacturer's instructions, with a TAQMAN® One-Step RT-PCR Master Mix Reagents Kit (Cat# AB 4309169, Applied Biosystems) on an ABI Model 7500 thermocycler. EC50 values of combinations are similarly determined by HCV RNA detection using quantitative RT-PCR. The TAQMAN primers to use for detecting and quantifying HCV RNA obtained from Integrated DNA Technologies. HCV RNA is normalized to GAPDH RNA levels in drug-treated cells, which is detected and quantified using the Human GAPDH Endogenous Control Mix (Applied Biosystems, AB 4310884E). […] Chemical agent cytotoxicity is evaluated using an MTS assay according to the manufacturer's directions (Promega). […]

[2] = tested on: HCV 1a genotype replicon (strain H77, Huh-1a7 cells); assay: HCV replicon assay, qRT-PCR, genotype 1a replicon cell line (Huh-1a7); type: cell-based; settings: HCV genotype 1a replicon, HCV RNA by qRT-PCR normalized to GAPDH RNA
Excerpt: as §1, §2

Compound | EC50 ([1]; Hepatitis C virus) [nM] | EC50 ([2]; Hepatitis C virus) [nM] | EC50 [1] [nM] | EC50 [2] [nM]
CC(C)CCCCN1CCOCC1 [Example 1] | < 200 | < 200 |  | 
Allisporivir |  |  | < 200 | < 200
